Tests used:
[1] = system: Ba/F3-FGFR3-transfected cells; test: Ba/F3-FGFR3 (plus IL3) cellular proliferation assay, counterscreen with 10 ng/ml murine IL3; type: cell-based; details: plus IL3 (10 ng/ml murine IL3, counterscreen); read-out: BAF3-FGFR3 (PLUS IL3) pIC50 (converted)
Method in brief: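 With or without 10 ng/ml murine IL3, FGFR3-dependent Ba/F3 cells were treated 24 h with compound, then viability was gauged by Alamar Blue fluorescence after 4 h (ex 540/em 590 nm).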

[2] = molecular target: Ba/F3-FGFR4-transfected cells (Homo sapiens, UniProt P22455); test: Ba/F3-FGFR4 cellular proliferation assay, Alamar Blue; type: cell-based
Method in brief: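 Proliferation of Ba/F3-FGFR4-transfected cells is gauged by Alamar Blue (resazurin) fluorescence after 24 hours of compound treatment in phenol red free RPMI-1640 with 10% FBS.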

[3] = molecular target: T1, Ba/F3-FGFR1-transfected cells (Homo sapiens, UniProt P11362); test: Ba/F3-FGFR1 (minus IL3) cellular proliferation assay, Alamar Blue; type: cell-based
T1 construct: BAF3-FGFR1 (MIN IL3) pIC50; other: minus IL3
Method in brief: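 Viability of transfected Ba/F3-FGFR1 cells (20000 per well, RPMI-1640 with 10% FBS and 2 mM L-glutamine) was scored by resazurin-based Alamar Blue reduction over 4 h, after 24 h treatment with compound at 37 °C under 5% CO2.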

FGFR1 (h) = FGFR1 (h) (Homo sapiens, UniProt P11362); test: FGFR1 (enzymatic assay), TR-FRET; type: biochemical; details: read-out: FGFR 1 pIC50 (converted)
[4] = system: Ba/F3-FGFR1-transfected cells; test: Ba/F3-FGFR1 (plus IL3) cellular proliferation assay, counterscreen with 10 ng/ml murine IL3; type: cell-based; details: plus IL3 (10 ng/ml murine IL3, counterscreen); read-out: BAF3-FGFR1 (PLUS IL3) pIC50 (converted)
Method in brief: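 Ba/F3-FGFR1 cells (20000/well) in RPMI-1640 with 10% FBS exposed to compound for 24 h at 37° C., 5% CO2, then Alamar Blue (resazurin) added for 4 h; fluorescence read at ex 540/em 590 nm. Counterscreen run identically with 10 ng/ml murine IL3.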

[5] = molecular target: T2, Ba/F3-KDR-transfected cells (Homo sapiens, UniProt P35968); test: Ba/F3-KDR (minus IL3) cellular proliferation assay, Alamar Blue; type: cell-based
T2 construct: BAF3-KDR (MIN IL3) pIC50; other: minus IL3
Method in brief: (§1)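 Proliferation is measured as Alamar Blue relative fluorescence units following 24 h compound treatment of 20000 cells per well in 10% FBS medium. The IL3-supplemented run serves as a counterscreen under the same conditions.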

FGFR4 (h) = FGFR4 (h) (Homo sapiens, UniProt P22455); test: FGFR4 (enzymatic assay), TR-FRET; type: biochemical; details: FGFR 4 pIC50, enzymatic assay
FGFR2 (h) = FGFR2 (h) (Homo sapiens, UniProt P21802); test: FGFR2 (enzymatic assay), TR-FRET; type: biochemical; details: enzymatic assay; read-out: FGFR 2 pIC50 (converted)
Method in brief: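 Kinase reaction in 50 mM HEPES pH 7.5 with 6 mM MnCl2, 1 mM DTT, 0.1 mM Na3VO4 and 0.01% Triton-X-100 contained FGFR2 (h) at 150 ng/ml. Biotinylated Flt3 peptide (500 nM) served as substrate with 0.4 μM ATP, compound added in 1% DMSO final.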

[6] = system: Ba/F3-KDR-transfected cells; test: Ba/F3-KDR (plus IL3) cellular proliferation assay, counterscreen with 10 ng/ml murine IL3; type: cell-based; details: plus IL3 (10 ng/ml murine IL3, counterscreen); read-out: BAF3-KDR (PLUS IL3) pIC50 (converted)
Method in brief: as §1

T2 sequence (P35968 whole entry, change not shown): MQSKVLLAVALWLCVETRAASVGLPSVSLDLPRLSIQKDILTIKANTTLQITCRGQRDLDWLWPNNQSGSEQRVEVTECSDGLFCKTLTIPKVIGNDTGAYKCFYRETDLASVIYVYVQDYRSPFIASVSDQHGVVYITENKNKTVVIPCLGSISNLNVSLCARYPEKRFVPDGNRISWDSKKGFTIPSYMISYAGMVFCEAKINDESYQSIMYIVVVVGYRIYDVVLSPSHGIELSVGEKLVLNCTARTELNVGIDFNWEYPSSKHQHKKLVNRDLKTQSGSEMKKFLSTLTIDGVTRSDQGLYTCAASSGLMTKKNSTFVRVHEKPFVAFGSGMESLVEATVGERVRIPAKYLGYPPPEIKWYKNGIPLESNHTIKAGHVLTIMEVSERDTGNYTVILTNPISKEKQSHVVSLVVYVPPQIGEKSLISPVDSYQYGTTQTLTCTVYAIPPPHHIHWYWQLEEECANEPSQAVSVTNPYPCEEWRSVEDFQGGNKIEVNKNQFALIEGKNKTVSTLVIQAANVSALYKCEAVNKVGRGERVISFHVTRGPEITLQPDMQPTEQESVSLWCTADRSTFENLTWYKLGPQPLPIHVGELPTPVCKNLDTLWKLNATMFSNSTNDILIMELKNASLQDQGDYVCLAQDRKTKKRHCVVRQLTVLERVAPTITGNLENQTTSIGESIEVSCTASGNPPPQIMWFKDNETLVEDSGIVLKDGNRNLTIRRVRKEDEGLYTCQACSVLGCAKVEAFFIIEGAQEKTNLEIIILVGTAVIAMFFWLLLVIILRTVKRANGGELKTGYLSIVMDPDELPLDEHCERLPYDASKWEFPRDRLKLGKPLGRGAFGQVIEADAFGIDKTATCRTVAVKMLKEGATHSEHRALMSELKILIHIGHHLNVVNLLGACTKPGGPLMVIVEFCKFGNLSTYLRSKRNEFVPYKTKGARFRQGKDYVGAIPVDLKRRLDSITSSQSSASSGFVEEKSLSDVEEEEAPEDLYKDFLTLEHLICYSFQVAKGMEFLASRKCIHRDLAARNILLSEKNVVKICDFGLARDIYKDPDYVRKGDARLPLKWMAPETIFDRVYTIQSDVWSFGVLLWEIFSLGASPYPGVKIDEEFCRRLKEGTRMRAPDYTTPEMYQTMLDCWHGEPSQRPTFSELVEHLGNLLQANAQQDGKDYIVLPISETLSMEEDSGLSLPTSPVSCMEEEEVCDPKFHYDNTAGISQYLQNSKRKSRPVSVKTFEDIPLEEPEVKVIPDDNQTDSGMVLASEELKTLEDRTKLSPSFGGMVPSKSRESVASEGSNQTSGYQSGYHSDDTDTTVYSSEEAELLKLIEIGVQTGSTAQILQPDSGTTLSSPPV
FGFR2 (h), sequence (P21802 22-821): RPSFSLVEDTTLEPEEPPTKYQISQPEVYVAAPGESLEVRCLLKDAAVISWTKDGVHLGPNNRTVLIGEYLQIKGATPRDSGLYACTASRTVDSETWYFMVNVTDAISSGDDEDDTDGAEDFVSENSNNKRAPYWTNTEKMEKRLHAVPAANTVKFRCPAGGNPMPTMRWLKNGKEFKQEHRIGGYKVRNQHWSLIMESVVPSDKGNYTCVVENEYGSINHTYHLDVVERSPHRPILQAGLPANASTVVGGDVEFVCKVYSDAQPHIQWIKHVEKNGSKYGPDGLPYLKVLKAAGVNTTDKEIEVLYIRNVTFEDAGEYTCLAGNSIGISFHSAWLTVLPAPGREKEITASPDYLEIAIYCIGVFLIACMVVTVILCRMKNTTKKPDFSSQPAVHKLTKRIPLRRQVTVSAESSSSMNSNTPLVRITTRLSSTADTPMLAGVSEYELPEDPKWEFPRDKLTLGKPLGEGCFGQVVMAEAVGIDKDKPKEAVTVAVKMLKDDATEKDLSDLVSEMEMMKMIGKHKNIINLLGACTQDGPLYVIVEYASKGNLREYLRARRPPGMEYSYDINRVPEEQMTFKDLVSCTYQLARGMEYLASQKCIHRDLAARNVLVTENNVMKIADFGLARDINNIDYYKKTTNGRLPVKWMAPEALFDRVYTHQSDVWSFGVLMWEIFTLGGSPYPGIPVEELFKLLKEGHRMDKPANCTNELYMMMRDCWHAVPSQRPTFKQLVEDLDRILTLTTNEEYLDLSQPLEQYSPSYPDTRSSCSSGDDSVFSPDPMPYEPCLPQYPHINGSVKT
T1 sequence (P11362 whole entry, change not shown): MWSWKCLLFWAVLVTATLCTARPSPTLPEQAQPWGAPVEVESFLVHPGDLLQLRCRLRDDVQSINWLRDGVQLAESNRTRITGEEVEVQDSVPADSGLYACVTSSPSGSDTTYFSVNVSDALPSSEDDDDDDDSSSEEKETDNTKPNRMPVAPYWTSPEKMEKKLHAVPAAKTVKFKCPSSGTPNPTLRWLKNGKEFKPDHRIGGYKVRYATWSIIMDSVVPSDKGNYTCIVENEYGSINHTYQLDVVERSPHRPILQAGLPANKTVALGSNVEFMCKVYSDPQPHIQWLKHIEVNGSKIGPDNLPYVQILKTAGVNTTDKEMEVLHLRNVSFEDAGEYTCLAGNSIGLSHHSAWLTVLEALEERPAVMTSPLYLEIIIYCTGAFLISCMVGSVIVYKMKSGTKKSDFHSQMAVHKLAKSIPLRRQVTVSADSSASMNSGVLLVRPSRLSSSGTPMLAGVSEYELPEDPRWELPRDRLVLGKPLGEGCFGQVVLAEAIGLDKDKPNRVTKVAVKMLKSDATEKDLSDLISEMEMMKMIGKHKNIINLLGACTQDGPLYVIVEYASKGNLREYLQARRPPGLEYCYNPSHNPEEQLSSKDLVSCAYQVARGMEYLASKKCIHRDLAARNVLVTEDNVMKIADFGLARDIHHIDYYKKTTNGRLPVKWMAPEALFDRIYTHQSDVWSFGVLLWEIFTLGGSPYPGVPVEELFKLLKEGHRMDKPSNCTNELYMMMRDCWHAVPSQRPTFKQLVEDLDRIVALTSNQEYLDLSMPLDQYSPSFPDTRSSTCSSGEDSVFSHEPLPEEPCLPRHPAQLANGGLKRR
FGFR4 (h), sequence (P22455 22-802): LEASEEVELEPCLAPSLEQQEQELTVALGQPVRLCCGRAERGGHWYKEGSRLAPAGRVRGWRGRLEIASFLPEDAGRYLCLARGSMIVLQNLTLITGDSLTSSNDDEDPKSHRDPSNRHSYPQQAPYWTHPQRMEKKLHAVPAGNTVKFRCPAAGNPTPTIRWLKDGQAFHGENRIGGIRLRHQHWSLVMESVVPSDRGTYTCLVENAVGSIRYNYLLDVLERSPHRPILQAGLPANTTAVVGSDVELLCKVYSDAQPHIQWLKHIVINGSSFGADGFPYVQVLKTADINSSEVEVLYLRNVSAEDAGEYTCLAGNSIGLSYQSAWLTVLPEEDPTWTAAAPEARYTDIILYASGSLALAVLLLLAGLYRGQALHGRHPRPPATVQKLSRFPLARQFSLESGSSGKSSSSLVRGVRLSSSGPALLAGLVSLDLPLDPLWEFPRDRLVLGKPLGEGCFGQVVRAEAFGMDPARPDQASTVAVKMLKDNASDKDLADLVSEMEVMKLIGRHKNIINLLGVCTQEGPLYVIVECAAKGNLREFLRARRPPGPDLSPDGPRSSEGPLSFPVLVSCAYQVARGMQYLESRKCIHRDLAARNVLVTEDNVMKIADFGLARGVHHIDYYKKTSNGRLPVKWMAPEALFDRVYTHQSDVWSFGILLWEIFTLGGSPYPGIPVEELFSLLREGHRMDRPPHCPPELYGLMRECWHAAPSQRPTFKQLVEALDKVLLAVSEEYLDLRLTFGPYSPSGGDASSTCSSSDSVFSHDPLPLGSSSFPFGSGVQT
FGFR1 (h), sequence (P11362 22-822): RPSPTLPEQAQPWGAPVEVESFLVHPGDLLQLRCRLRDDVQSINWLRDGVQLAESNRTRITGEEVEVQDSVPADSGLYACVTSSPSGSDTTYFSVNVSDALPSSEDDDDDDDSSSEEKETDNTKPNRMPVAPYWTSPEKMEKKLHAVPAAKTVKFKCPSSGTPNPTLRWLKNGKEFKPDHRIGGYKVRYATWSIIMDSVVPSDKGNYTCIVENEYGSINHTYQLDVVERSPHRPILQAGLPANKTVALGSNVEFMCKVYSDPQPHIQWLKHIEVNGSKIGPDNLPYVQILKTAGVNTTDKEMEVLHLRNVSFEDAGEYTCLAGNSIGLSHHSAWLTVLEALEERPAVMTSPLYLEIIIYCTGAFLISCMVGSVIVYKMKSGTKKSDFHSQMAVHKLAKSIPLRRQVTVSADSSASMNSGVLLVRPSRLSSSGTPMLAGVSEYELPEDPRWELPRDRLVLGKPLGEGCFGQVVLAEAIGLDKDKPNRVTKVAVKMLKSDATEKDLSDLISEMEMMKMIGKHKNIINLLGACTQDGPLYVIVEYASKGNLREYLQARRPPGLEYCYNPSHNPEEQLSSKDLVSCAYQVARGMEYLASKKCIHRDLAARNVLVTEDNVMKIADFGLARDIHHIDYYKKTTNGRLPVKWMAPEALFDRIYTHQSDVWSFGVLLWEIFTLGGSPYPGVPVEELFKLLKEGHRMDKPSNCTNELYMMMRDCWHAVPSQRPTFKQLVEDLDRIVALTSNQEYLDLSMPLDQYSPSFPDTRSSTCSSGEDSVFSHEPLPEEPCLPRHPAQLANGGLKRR

## COc1cc(/N=c2\ccc3ncc(-c4cnn(CC(C)(C)O)c4)nc3n2CC(C)(C)O)c(F)c(OC)c1 (single isomer, unassigned) [Compound 207]
[1]
  IC50: > 10000 nM
[2]
  BAF3-FGFR4 pIC50: 6.69
[3]
  BAF3-FGFR1 (MIN IL3) pIC50: 7.45
FGFR1 (h)
  IC50: 0.813 nM
[4]
  IC50: > 10000 nM
[5]
  BAF3-KDR (MIN IL3) pIC50: 6.11
FGFR4 (h)
  IC50: 3.16 nM
FGFR2 (h)
  IC50: 2.51 nM
[6]
  IC50: > 10000 nM

## COc1cc(OC)c(F)c(N(Cc2ncc[nH]2)c2ccc3ncc(-c4cccnc4)nc3n2)c1 [Compound 190a]
[1]
  IC50: > 10000 nM
[2]
  BAF3-FGFR4 pIC50: 7.11
[3]
  BAF3-FGFR1 (MIN IL3) pIC50: 7.94
FGFR1 (h)
  IC50: 1.02 nM
[4]
  IC50: > 10000 nM
[5]
  BAF3-KDR (MIN IL3) pIC50: 5.82
FGFR4 (h)
  IC50: 2.95 nM
FGFR2 (h)
  IC50: 2.04 nM
[6]
  IC50: > 10000 nM

## COc1cc(OC)c(F)c(N(CC#N)c2ccc3ncc(-c4cnn(C)c4)nc3n2)c1F [Compound 173]
[1]
  IC50: > 10000 nM
[2]
  BAF3-FGFR4 pIC50: 7.61
[3]
  BAF3-FGFR1 (MIN IL3) pIC50: 8.00
FGFR1 (h)
  IC50: ~0.977 nM
[4]
  IC50: > 10000 nM
[5]
  BAF3-KDR (MIN IL3) pIC50: 5.78
FGFR4 (h)
  IC50: 0.724 nM
FGFR2 (h)
  IC50: 1.1 nM
[6]
  IC50: > 10000 nM

## COc1cc(OC)c(F)c(N(Cc2c(C)noc2C)c2ccc3ncc(-c4cnn(C)c4)nc3n2)c1 [Compound 178]
[1]
  IC50: > 10000 nM
[2]
  BAF3-FGFR4 pIC50: 5.83
[3]
  BAF3-FGFR1 (MIN IL3) pIC50: 6.20
FGFR1 (h)
  IC50: 11.2 nM
[4]
  IC50: > 10000 nM
[5]
  BAF3-KDR (MIN IL3) pIC50: <5
FGFR4 (h)
  IC50: 19.5 nM
FGFR2 (h)
  IC50: 7.41 nM
[6]
  IC50: > 10000 nM

## COc1cc(OC)cc(N(CCN2CCCC2=O)c2ccc3ncc(-c4cnn(C)c4)nc3n2)c1 [Compound 151]
[1]
  IC50: > 10000 nM
[2]
  BAF3-FGFR4 pIC50: 5.49
[3]
  BAF3-FGFR1 (MIN IL3) pIC50: 5.56
FGFR1 (h)
  IC50: 38.9 nM
[4]
  IC50: > 10000 nM
[5]
  BAF3-KDR (MIN IL3) pIC50: <5
FGFR4 (h)
  IC50: 91.2 nM
FGFR2 (h)
  IC50: 15.1 nM
[6]
  IC50: > 10000 nM

## COc1cc(/N=c2\ccc3ncc(-c4cnn(C)c4)nc3n2Cc2cnn(C)c2)c(F)c(OC)c1 [Compound 196]
[1]
  IC50: > 10000 nM
[2]
  BAF3-FGFR4 pIC50: ~8.62
[3]
  BAF3-FGFR1 (MIN IL3) pIC50: 8.95
FGFR1 (h)
  IC50: 0.407 nM
[4]
  IC50: > 10000 nM
[5]
  BAF3-KDR (MIN IL3) pIC50: 7.41
FGFR4 (h)
  IC50: ~0.891 nM
FGFR2 (h)
  IC50: 2.14 nM
[6]
  IC50: > 10000 nM

## COc1cc(OC)c(F)c(N(Cc2cc(C)no2)c2ccc3ncc(-c4cnn(C)c4)nc3n2)c1 [Compound 185]
[1]
  IC50: > 10000 nM
[2]
  BAF3-FGFR4 pIC50: 7.39
[3]
  BAF3-FGFR1 (MIN IL3) pIC50: 7.59
FGFR1 (h)
  IC50: 0.851 nM
[4]
  IC50: > 10000 nM
[5]
  BAF3-KDR (MIN IL3) pIC50: 5.51
FGFR4 (h)
  IC50: 0.977 nM
FGFR2 (h)
  IC50: 1.51 nM
[6]
  IC50: > 10000 nM

## COc1cc(OC)cc(N(Cc2nnco2)c2ccc3ncc(-c4cnn(C)c4)nc3n2)c1 [Compound 217]
[1]
  IC50: > 10000 nM
[2]
  BAF3-FGFR4 pIC50: 6.03
[3]
  BAF3-FGFR1 (MIN IL3) pIC50: 6.59
FGFR1 (h)
  IC50: 7.94 nM
[4]
  IC50: > 10000 nM
[5]
  BAF3-KDR (MIN IL3) pIC50: 5.18
FGFR4 (h)
  IC50: 23.4 nM
FGFR2 (h)
  IC50: 5.89 nM
[6]
  IC50: > 10000 nM

## COc1cc(OC)c(F)c(N(Cc2ncc[nH]2)c2ccc3ncc(-c4ccncc4)nc3n2)c1 [Compound 211]
[1]
  IC50: > 10000 nM
[2]
  BAF3-FGFR4 pIC50: 7.29
[3]
  BAF3-FGFR1 (MIN IL3) pIC50: 8.08
FGFR1 (h)
  IC50: 1 nM
[4]
  IC50: > 10000 nM
[5]
  BAF3-KDR (MIN IL3) pIC50: 5.82
FGFR4 (h)
  IC50: 2.29 nM
FGFR2 (h)
  IC50: ~2.34 nM
[6]
  IC50: > 10000 nM

## COc1cc(OC)cc(N(Cc2ncc[nH]2)c2ccc3ncc(-c4ccncc4)nc3n2)c1 [Compound 202]
[1]
  IC50: > 10000 nM
[2]
  BAF3-FGFR4 pIC50: 6.81
[3]
  BAF3-FGFR1 (MIN IL3) pIC50: 7.47
FGFR1 (h)
  IC50: 1.12 nM
[4]
  IC50: > 10000 nM
[5]
  BAF3-KDR (MIN IL3) pIC50: 5.24
FGFR4 (h)
  IC50: 2.82 nM
FGFR2 (h)
  IC50: 1.74 nM
[6]
  IC50: > 10000 nM

## COc1cc(OC)cc(N(Cc2ncc[nH]2)c2ccc3ncc(-c4cnn(C5CCNCC5)c4)nc3n2)c1 [Compound 227]
[1]
  IC50: > 10000 nM
[2]
  BAF3-FGFR4 pIC50: 6.91
[3]
  BAF3-FGFR1 (MIN IL3) pIC50: 7.73
FGFR1 (h)
  IC50: 0.562 nM
[4]
  IC50: > 10000 nM
[5]
  BAF3-KDR (MIN IL3) pIC50: 5.79
FGFR4 (h)
  IC50: 1.82 nM
FGFR2 (h)
  IC50: 1.45 nM
[6]
  IC50: > 10000 nM

## COC(=O)CN(c1ccc2ncc(-c3cnn(C)c3)nc2n1)c1cc(OC)cc(OC)c1F [Compound 214]
[1]
  IC50: > 10000 nM
[2]
  BAF3-FGFR4 pIC50: 6.52
[3]
  BAF3-FGFR1 (MIN IL3) pIC50: 7.08
FGFR1 (h)
  IC50: 2.4 nM
[4]
  IC50: > 10000 nM
[5]
  BAF3-KDR (MIN IL3) pIC50: 5.31
FGFR4 (h)
  IC50: 11.2 nM
FGFR2 (h)
  IC50: 2.57 nM
[6]
  IC50: > 10000 nM

## COc1cc(OC)cc(N(Cc2ncc[nH]2)c2ccc3ncc(-c4ccccc4)nc3n2)c1 [Compound 152]
[1]
  IC50: > 10000 nM
[2]
  BAF3-FGFR4 pIC50: 7.46
[3]
  BAF3-FGFR1 (MIN IL3) pIC50: 7.96
FGFR1 (h)
  IC50: 1.07 nM
[4]
  IC50: > 10000 nM
[5]
  BAF3-KDR (MIN IL3) pIC50: 5.56
FGFR4 (h)
  IC50: 1.41 nM
FGFR2 (h)
  IC50: 1.48 nM
[6]
  IC50: > 10000 nM

## COc1cc(OC)c(F)c(/N=c2\ccc3ncc(-c4cnn(C)c4)nc3n2CC2CCOC2)c1F (stereo not drawn) [Compound 154]
[1]
  IC50: > 10000 nM
[2]
  BAF3-FGFR4 pIC50: ~7.6
[3]
  BAF3-FGFR1 (MIN IL3) pIC50: 7.71
FGFR1 (h)
  IC50: 0.661 nM
[4]
  IC50: > 10000 nM
[5]
  BAF3-KDR (MIN IL3) pIC50: 6.43
FGFR4 (h)
  IC50: 0.776 nM
FGFR2 (h)
  IC50: 1.05 nM
[6]
  IC50: > 10000 nM

## COc1cc(OC)c(F)c(N(Cc2ncc[nH]2)c2ccc3ncc(-c4ccccc4)nc3n2)c1 [Compound 200]
[1]
  IC50: > 10000 nM
[2]
  BAF3-FGFR4 pIC50: 7.33
[3]
  BAF3-FGFR1 (MIN IL3) pIC50: 8.37
FGFR1 (h)
  IC50: 0.537 nM
[4]
  IC50: > 10000 nM
[5]
  BAF3-KDR (MIN IL3) pIC50: 5.99
FGFR4 (h)
  IC50: 1.48 nM
FGFR2 (h)
  IC50: 1.7 nM
[6]
  IC50: > 10000 nM

## COc1cc(OC)c(F)c(N(Cc2cnn(C)c2)c2ccc3ncc(-c4cnn(C)c4)nc3n2)c1 [Compound 195]
[1]
  IC50: > 10000 nM
[2]
  BAF3-FGFR4 pIC50: 7.33
[3]
  BAF3-FGFR1 (MIN IL3) pIC50: 8.08
FGFR1 (h)
  IC50: 0.589 nM
[4]
  IC50: > 10000 nM
[5]
  BAF3-KDR (MIN IL3) pIC50: 5.79
FGFR4 (h)
  IC50: 0.871 nM
FGFR2 (h)
  IC50: 2.04 nM
[6]
  IC50: > 10000 nM

Reference: US9309242B2, “Substituted pyrido[2,3-b]pyrazines as FGFR kinase inhibitors” (priority 2011, dated 2016)
